Test results reported in article PMC9866861, “The More the Better—Investigation of Polymethoxylated N-Carboranyl Quinazolines as Novel Hybrid Breast Cancer Resistance Protein Inhibitors” (Pharmaceutics, 2023).
“Also recorded” adds a separate entry of the source.

Tests used:
MDCKII-hABCG2 cells [1] = assay: WST-1 cell proliferation assay (cytotoxicity), MDCKII-hABCG2; assay type: cell-based, canine; details: for IC50: WST-1, 48 h, IC50 = 50% reduced cell viability, mean ± SEM, N = 3; for cell viability: MDCKII-hABCG2, highest concentration 50 µM, 48 h
Experimental: (§1) The MDCKII-hABCG2 and MDCKII-WT cells were purchased from Alfred Schinkel (Het Nederlands Kanker Instituut, Amsterdam, The Netherlands) and were cultivated in MEM (minimal essential medium) with Earle’s Salts (2.2 g/L NaHCO3, stable glutamine; Biowest, Nuaillé, France) supplemented with 10% (v/v) fetal calf serum (Life Technology, Karlsruhe, Germany), 1% (v/v) non-essential amino acids (Biowest, Nuaillé, France), 100 U/mL penicillin, and 100 µg/mL streptomycin (Biowest, Nuaillé, France). The cells were grown in a humidified atmosphere (37 °C, 5% CO2) and were sub-cultured every 3 to 4 days using 0.05% trypsin/0.02% EDTA (Biowest, Nuaillé, France), up to a total of 14 passages.
(§2) MDCKII-hABCG2 cells and their parental MDCKII-WT cells were seeded in 96-well plates (TPP, Trasadingen, Switzerland) in a density of 2 × 10^4 cells/mL and 3 × 10^4 cells/mL, respectively. After 48 h, the cells were incubated with increasing concentrations of up to 50 µM of the novel synthesized compounds, with 0.1% Triton X-100 as the positive control and solvent (0.1% DMSO) as the negative control for 48 h. Afterwards, the substance-specific cytotoxicity was determined by the water-soluble tetrazolium-1 (4-[3-(4-iodophenyl)-2-(4-nitro-phenyl)-2H-5-tetrazolio]-1,3-benzene sulfonate; WST-1) assay as previously described. The cell viability was determined by microplate reader at 450 nm (Tecan Sunrise, Crailsheim, Germany). The data of three independent experiments (N = 3) were tested for normality with the Shapiro-Wilk test. The significant differences compared to solvent control were analyzed by one-way ANOVA with the Holm-Šidák post hoc test using SigmaPlot 14.5 (Systec Software, San Jose, CA, USA). The data were normalized against the vehicle control (0.1% DMSO) and were expressed as mean ± SEM.

human ABCG2 transporter = biological target: T1, human ABCG2 transporter (Homo sapiens, UniProt Q9UNQ0); assay: Hoechst 33342 accumulation assay (MDCKII-hABCG2 vs MDCKII-WT); assay type: cell-based; details: for inhibition of human ABCG2 transporter in Hoechst 33342 accumulation assay: 0.5 µM; for intracellular Hoechst 33342 accumulation / inhibition of ABCG2-mediated Hoechst efflux: 0.5 and 1.0 µM compound, Ko143 1 µM, 4 h, vs solvent control
T1 construct: expressed in transfected cells; host or cells: MDCKII (Madin-Darby canine kidney) cells transfected with human ABCG2
T1 sequence (Q9UNQ0 1-655): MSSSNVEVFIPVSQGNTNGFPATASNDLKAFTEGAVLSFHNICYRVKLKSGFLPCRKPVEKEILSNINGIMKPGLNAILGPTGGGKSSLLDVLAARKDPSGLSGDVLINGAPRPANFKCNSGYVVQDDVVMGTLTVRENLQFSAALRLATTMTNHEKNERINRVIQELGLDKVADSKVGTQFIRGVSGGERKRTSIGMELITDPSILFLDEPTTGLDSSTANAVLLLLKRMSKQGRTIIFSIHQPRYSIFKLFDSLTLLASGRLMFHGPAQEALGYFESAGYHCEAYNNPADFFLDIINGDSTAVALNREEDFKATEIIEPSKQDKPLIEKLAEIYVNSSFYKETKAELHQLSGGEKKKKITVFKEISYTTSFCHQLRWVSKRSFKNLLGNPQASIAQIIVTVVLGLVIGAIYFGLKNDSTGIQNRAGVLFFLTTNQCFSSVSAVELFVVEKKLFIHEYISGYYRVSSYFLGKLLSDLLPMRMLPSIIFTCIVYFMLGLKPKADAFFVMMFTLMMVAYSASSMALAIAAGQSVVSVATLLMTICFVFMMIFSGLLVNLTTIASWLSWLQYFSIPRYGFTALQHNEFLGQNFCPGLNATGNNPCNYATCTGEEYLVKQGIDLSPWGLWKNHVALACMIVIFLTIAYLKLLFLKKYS
Experimental: The Hoechst 33342 accumulation assay was used to detect an interaction of the investigated compounds with the human ABCG2 transporter. The assay protocol was adapted from that published by Wassermann et al.. The MDCKII-hABCG2 (2 × 10^4 cells/mL) and MDCKII-WT (3 × 10^4 cells/mL) cells were seeded in 96-well plates and cultured for 72 h. Afterwards, the sub-confluent monolayers were treated with 0.5 µM and 1.0 µM of the investigational compounds or its respective solvent control (0.1% DMSO) for 4 h. […] After 5 and 20 min, the cells were washed twice with ice-cold PBS buffer solution and lyzed with 100 µL/well 0.1% (v/v) SDS/PBS. The intracellular Hoechst 33342 amount was detected by spectrofluorometry (360 nm excitation/465 nm emission wavelengths, Tecan Infinite F200 Pro, Crailsheim, Germany). The examined fluorescence subtracted by the background of non-treated cells was correlated to the protein amount quantified by the bicinchoninic acid assay (BCA, Thermo Scientific, Rockford, IL, USA) following the manufacturer’s instructions. Relative fluorescence units (RFU) were calculated as the relation of fluorescence/mg protein of MDCKII-hABCG2 cells to MDCKII-WT cells, normalized to the solvent control set as 1 and expressed as mean ± SEM. The data from the Hoechst 3342 accumulation assay (five independent experiments N = 5) were tested for normality with the Shapiro-Wilk test. Significant differences compared to the solvent control were analyzed by one-way ANOVA with the Holm-Šidák post hoc test using SigmaPlot 14.5 (Systec Software, San Jose, CA, USA). An inhibition of human ABCG2 efflux transport activity is defined as the significant difference to the solvent control (0.1% DMSO).

MDCKII-WT cells = assay: WST-1 cell proliferation assay (cytotoxicity), MDCKII-WT; assay type: cell-based, canine; details: WST-1, 48 h; for IC50: IC50 = 50% reduced cell viability, mean ± SEM, N = 3
Experimental: as §1, §2

MDCKII-hABCG2 cells [2] = assay: Reversal of ABCG2-mediated mitoxantrone resistance (WST-1); assay type: cell-based, canine; details: for Left-Shift Factor: MDCKII-hABCG2, MXN + 1 µM compound, (IC50 minus SEM of MXN alone) by (IC50 plus SEM of combination)
Experimental: Afterwards, the WST-1 assay was performed as described. […] All data were normalized against the vehicle control and were expressed as mean ± SEM, calculated from at least three independent experiments.

inhibition of human ABCG2 transporter in Hoechst 33342 accumulation assay (human ABCG2 transporter)	Substance	IC50 (MDCKII-hABCG2 cells [1])	intracellular Hoechst 33342 accumulation / inhibition of ABCG2-mediated Hoechst efflux (human ABCG2 transporter)	IC50 (MDCKII-WT cells)	cell viability (MDCKII-hABCG2 cells [1])	decreased cell viability (MDCKII-hABCG2 cells [1]; MDCKII-hABCG2, WST-1, 48 h, up to 50 µM)	reversal of MXN resistance (MDCKII-hABCG2 cells [2]; MDCKII-hABCG2, 1 µM compound with MXN)	Left-Shift Factor (MDCKII-hABCG2 cells [2])	decreased cell viability (MDCKII-WT cells; MDCKII-WT)
inhibited the human ABCG2 transporter	N-(closo-1,7-dicarbadodecaboran(12)-9-yl)-6,7-dimethoxy-2-(3,4,5-trimethoxyphenyl)-quinazolin-4-amine [DMQCd]	> 50 µM	strongest inhibition at 0.5 µM with a comparable level as the reference Ko143	> 50 µM					
	N-(closo-1,7-dicarbadodecaboran(12)-9-yl)-2-phenylquinazolin-4-amine [QCa]	> 10 µM	did not affect the human ABCG2-mediated Hoechst efflux	43.23 ± 0.159 µM	30%				
inhibited the human ABCG2 transporter	N-(closo-1,7-dicarbadodecaboran(12)-9-yl)-2-(3,4-dimethoxyphenyl)-quinazolin-4-amine [QCc]	> 50 µM	the only compound exhibiting inhibition within the tested concentration range	> 50 µM		about 40%	able to reverse MXN resistance	5.4-fold	
	N-(closo-1,7-dicarbadodecaboran(12)-9-yl)-6,7-dimethoxy-2-(3,4-dimethoxy-phenyl)-quinazolin-4-amine [DMQCc]	> 50 µM	only marginal increases in Hoechst 33342 accumulation; also recorded: no significant inhibition	> 50 µM				9.8-fold	
	N-(closo-1,7-dicarbadodecaboran(12)-9-yl)-2-(4-methoxyphenyl)-quinazolin-4-amine [QCb]	> 10 µM	did not affect the human ABCG2-mediated Hoechst efflux	44.17 ± 0.174 µM	30%				
	N-(closo-1,7-dicarbadodecaboran(12)-9-yl)-2-(3,4,5-trimethoxyphenyl)-quinazolin-4-amine [QCd]	> 50 µM	did not affect the human ABCG2-mediated Hoechst efflux	> 50 µM					
	N-(closo-1,7-dicarbadodecaboran(12)-9-yl)-6,7-dimethoxy-2-(4-methoxy-phenyl)quinazolin-4-amine [DMQCb]	> 25 µM	only marginal increases in Hoechst 33342 accumulation; also recorded: no significant inhibition	> 25 µM				7.2-fold	~30%
	N-(closo-1,7-dicarbadodecaboran(12)-9-yl)-6,7-dimethoxy-2-phenyl-quinazolin-4-amine [DMQCa]	> 50 µM	improved inhibitory potency at 1.0 µM	> 50 µM				4.3-fold	
